# Experimental data as given in patent publication US7868135B2, “Compositions of lipopeptide antibiotic derivatives and methods of use thereof” (priority 2003, dated 2011).
# Like-named read-outs stand apart in the source and are kept apart here.
# Columns and labels:
# [1] = test system: Staphylococcus aureus SAU0031 (VISA); experiment: Broad spectrum MIC, Table 17/18 column G; assay type: cell-based; details: condition G of Table 17, in µg/mL
# Description: (§1) The antimicrobial lipopeptide derivatives described herein were tested for antimicrobial activity against Gram-positive bacteria as follows. The minimum inhibitory concentrations (MIC) of the antimicrobial lipopeptide derivatives of the invention were determined using NCCLS guidelines M7-A6 (2003) with a slight modification in that doubling serial dilutions were used to dilute the test compounds. The broth phase microdilution method was used. Isolated colonies of Staphylococcus aureus (MSSA) from an 18-24 hour blood agar plate cultures were used to inoculate cation adjusted Mueller-Hinton broth (CAMHB) supplemented with 0.625 mM calcium. […] A negative control containing media alone and a positive growth control containing bacteria with media alone were also included. MICs were determined after incubating the plates at about 37° C. for 24 hours. […] In Tables 1 to 16, R is the core cyclic peptide of amphomycin or aspartocin, which can be in the form of a β-isomer, an anhydro, a dianhydro, or any combination thereof. […] Furthermore, a person of skill in the art will appreciate that all the pounds, or groups of compounds, derived from the various combinations of and substituents shown in Tables 1 to 16, are disclosed by the present the same extent as if each compound or group of compounds was set forth individually.
# (§2) Antimicrobial lipopeptide derivatives of the instant invention were tested for antimicrobial activity against Gram-positive bacteria in a variety of media conditions. The […] (MIC) of the antimicrobial lipopeptide derivatives were determined as described in Example 376. The various media used are described in Table 17.
# [2] = test system: Enterococcus faecium EFM0101 (VRE, MDR); experiment: Broad spectrum MIC, Table 17/18 column A; assay type: cell-based; details: condition A of Table 17, in µg/mL
# Description: as §1, §2
# [3] = test system: Staphylococcus aureus SAU0065 (MRSA); experiment: Broad spectrum MIC, Table 17/18 column H; assay type: cell-based; details: condition H of Table 17, in µg/mL
# Description: as §1, §2
# [4] = test system: Staphylococcus aureus SAU0017 (MSSA); experiment: Broad spectrum MIC, Table 17/18 columns E, F (+ 0.625 mM calcium; + calcium and 30% bovine serum); assay type: cell-based; details: in µg/mL; for MIC, media condition E: condition E: + 0.625 mM calcium; for MIC, media condition F: condition F: + calcium and 30% bovine serum
# Description: as §1, §2
# [5] = test system: Streptococcus pneumoniae SPN0032 (PSSP); experiment: Broad spectrum MIC, Table 17/18 column L; assay type: cell-based; details: condition L of Table 17, in µg/mL
# Description: as §1, §2
# [6] = test system: Staphylococcus epidermidis SEP0375 (MRSE); experiment: Broad spectrum MIC, Table 17/18 column I; assay type: cell-based; details: condition I of Table 17, in µg/mL
# Description: as §1, §2
# [7] = test system: Streptococcus pneumoniae SPN0002 (PISP); experiment: Broad spectrum MIC, Table 17/18 column J; assay type: cell-based; details: condition J of Table 17, in µg/mL
# Description: as §1, §2
# [8] = test system: Enterococcus faecalis EFS0004 (VSE); experiment: Broad spectrum MIC, Table 17/18 B, C, D (CAMHB; + 0.625 mM calcium; + calcium and 30% bovine serum); assay type: cell-based; details: in µg/mL; for MIC, media condition B: condition B: CAMHB; for MIC, media condition C: condition C: + 0.625 mM calcium; for MIC, media condition D: condition D: + calcium and 30% bovine serum
# Description: as §1, §2
# [9] = test system: Streptococcus pneumoniae SPN0023 (PRSP); experiment: Broad spectrum MIC, Table 17/18 column K; assay type: cell-based; details: condition K of Table 17, in µg/mL
# Description: as §1, §2
# [10] = test system: Streptococcus pyogenes SPY0001 (PenS); experiment: Broad spectrum MIC, Table 17/18 column M; assay type: cell-based; details: condition M of Table 17, in µg/mL
# Description: as §1, §2
# [11] = test system: Staphylococcus aureus (MSSA)
# Procedure, shortened: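 Broth microdilution MIC per NCCLS M7-A6 with doubling serial dilutions, in cation-adjusted Mueller-Hinton broth supplemented with 0.625 mM calcium.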
"MIC, media condition G [1]","MIC, media condition A [2]","MIC, media condition H [3]","MIC, media condition E [4]","MIC, media condition F [4]","MIC, media condition L [5]","MIC, media condition I [6]","MIC, media condition J [7]","MIC, media condition B [8]","MIC, media condition C [8]","MIC, media condition D [8]","MIC, media condition K [9]","MIC, media condition M [10]",MIC ([11]; 24 h) [µg/mL],"MIC ([11]; S. aureus (MSSA), CAMHB supplemented with 0.625 mM calcium, 24 hours at about 37° C., a range = compound tested multiple times)",SMILES
8,4,4,4,8,0.5,4,0.125,2,1,64,0.125,1,,,"CCCCCCCCCCCCCCC(=O)NC(CC(=O)O)C(=O)NC1C(=O)N2CCCCC2C(=O)NC(C(C)C(=O)O)C(=O)NC(CC(=O)O)C(=O)NCC(=O)NC(CC(=O)O)C(=O)NCC(=O)NC(C(C)N)C(=O)NC(C(C)C)C(=O)N2CCCC2C(=O)NC1C (stereo not shown) [Compound 2, C15-Amphomycin]"
2-4,0.5-1,2-4,0.5,8-16,0.25,1,0.25,0.5,0.5-1,64,0.125,0.25-0.5,0.5,,"CCCCCCCCCCCCCCCC(=O)NC(CC(=O)O)C(=O)NC1C(=O)N2CCCCC2C(=O)NC(C(C)C(=O)O)C(=O)NC(CC(=O)O)C(=O)NCC(=O)NC(CC(=O)O)C(=O)NCC(=O)NC(C(C)N)C(=O)NC(C(C)C)C(=O)N2CCCC2C(=O)NC1C (stereo not shown) [Compound 11, C16-Amphomycin]"
4-8,0.5-1,1-2,1-2,32-64,0.25-0.5,2,0.25,0.5-1,1,64,0.125,0.5,1 to 2,,"CCCCCCCCCCCCCCCCC(=O)NC(CC(=O)O)C(=O)NC1C(=O)N2CCCCC2C(=O)NC(C(C)C(=O)O)C(=O)NC(CC(=O)O)C(=O)NCC(=O)NC(CC(=O)O)C(=O)NCC(=O)NC(C(C)N)C(=O)NC(C(C)C)C(=O)N2CCCC2C(=O)NC1C (stereo not shown) [Compound 12, C17-Amphomycin]"
4-8,2-4,2-8,2-4,32,0.25-1,2-4,0.125-1,2-4,1-4,>64,0.125-0.5,0.5-2,2 to 4,,"CCCCCCCCCCCCOc1ccc(C(=O)NC(CC(=O)O)C(=O)NC2C(=O)N3CCCCC3C(=O)NC(C(C)C(=O)O)C(=O)NC(CC(=O)O)C(=O)NCC(=O)NC(CC(=O)O)C(=O)NCC(=O)NC(C(C)N)C(=O)NC(C(C)C)C(=O)N3CCCC3C(=O)NC2C)cc1 (stereo not shown) [Compound 15, CH3—(CH2)11—O-p-Ph-C(═O)-Amphomycin]"
8,2,2,1-2,8-16,0.5,2,0.5,2-4,2,64,0.5,0.5-1,1 to 2,,"CCCCCCCCCCCCCCC(=O)NC(CC(=O)O)C(=O)NC1C(=O)N2CCCCC2C(=O)NC(C(C)C(=O)O)C(=O)NC(CC(=O)O)C(=O)NCC(=O)NC(CC(=O)O)C(=O)NCC(=O)NC(C(C)NC(=O)[C@H]2CCCN2)C(=O)NC(C(C)C)C(=O)N2CCCC2C(=O)NC1C (stereo partly drawn) [Compound 67, C15-Amphomycin-9-(D-Pro)]"
8,4,2,1,32,2,4,1,8,4,>64,1,1,1,,"CCCCCCCCCCCCCCC(=O)NC(CC(=O)O)C(=O)NC1C(=O)N2CCCCC2C(=O)NC(C(C)C(=O)O)C(=O)NC(CC(=O)O)C(=O)NCC(=O)NC(CC(=O)O)C(=O)NCC(=O)NC(C(C)NC(=O)CNC(=O)[C@@H](C)N)C(=O)NC(C(C)C)C(=O)N2CCCC2C(=O)NC1C (stereo partly drawn) [Compound 69, C15-Amphomycin-9-Gly-(D-Ala)]"
8,0.5-1,2,0.5-1,16-32,0.25,1-2,0.125,0.5-1,0.5-1,64,0.125,0.25-0.5,,80/0.5-1 μg/mL,"CCCCCCCCCCCCCCCCC(=O)NC(CC(=O)O)C(=O)NC1C(=O)N2CCCCC2C(=O)NC(C(C)C(=O)O)C(=O)NC(CC(=O)O)C(=O)NCC(=O)NC(CC(=O)O)C(=O)NCC(=O)NC(C(C)NC(=O)CCN)C(=O)NC(C(C)C)C(=O)N2CCCC2C(=O)NC1C (stereo not drawn) [Compound 80, C17-Amphomycin-9-(β-Ala)]"
4,1-2,1-2,0.25-0.5,8,0.25,0.5-1,0.25,6-16,2-4,64,0.125,0.25,0.25 to 0.5,,"CCCCCCCCCCCCNC(=O)NC(CC(=O)O)C(=O)NC1C(=O)N2CCCCC2C(=O)NC(C(C)C(=O)O)C(=O)NC(CC(=O)O)C(=O)NCC(=O)NC(CC(=O)O)C(=O)NCC(=O)NC(C(C)NC(=O)CN)C(=O)NC(C(C)C)C(=O)N2CCCC2C(=O)NC1C (stereo not shown) [Compound 92, CH3—(CH2)11—NH—C(═O)-Amphomycin-9-Gly]"

SMILES,"MIC, media condition G [1]","MIC, media condition A [2]","MIC, media condition H [3]","MIC, media condition E [4]","MIC, media condition F [4]","MIC, media condition L [5]","MIC, media condition I [6]","MIC, media condition J [7]","MIC, media condition B [8]","MIC, media condition C [8]","MIC, media condition D [8]","MIC, media condition K [9]","MIC, media condition M [10]",MIC ([11]; 24 h) [µg/mL],"MIC ([11]; S. aureus (MSSA), CAMHB supplemented with 0.625 mM calcium, 24 hours at about 37° C., a range = compound tested multiple times)"
"CCCCCCCCCCCCOc1ccc(C(=O)NC(CC(=O)O)C(=O)NC2C(=O)N3CCCCC3C(=O)NC(C(C)C(=O)O)C(=O)NC(CC(=O)O)C(=O)NCC(=O)NC(CC(=O)O)C(=O)NCC(=O)NC(C(C)NC(=O)CN)C(=O)NC(C(C)C)C(=O)N3CCCC3C(=O)NC2C)cc1 (stereo not shown) [Compound 88, CH3—(CH2)11—O-p-Ph-C(═O)-Amphomycin-9-Gly]",2-4,0.25-0.5,0.5-1,0.5-1,32-64,0.25,0.5-1,0.25,0.5-1,0.25-0.5,>64,0.125,0.25-0.5,,
